According to paper PMC6039321 (International Journal for Parasitology: Drugs and Drug …, 2018):
Read-outs that look alike come from different tables or passages of the source.

What was measured:
P. yoelii (17XL) = test: microbe, parasite or virus in culture; assay type: cell-based, Plasmodium yoelii; conditions: for IC50: read-out: OCA P. yoelii IC50
cytbc1 = cytbc1 (Plasmodium falciparum, UniProt Q02768); test: Enzymatic cytbc1 activity; assay type: biochemical, P. falciparum K1 strain; conditions: for % Inhibition Cytbc1 biochemical assay, 5 μM: compound at 5 μM, P. falciparum mitochondria, atovaquone 100% inhibition control
P. falciparum (K1) = assay type: cell-based, Plasmodium falciparum
HEK 293 cells = assay type: cell-based, H. sapiens; conditions: for IC50: read-out: OCA HEK 293 IC50, Table 4

Sequence of cytbc1 (Q02768 whole entry): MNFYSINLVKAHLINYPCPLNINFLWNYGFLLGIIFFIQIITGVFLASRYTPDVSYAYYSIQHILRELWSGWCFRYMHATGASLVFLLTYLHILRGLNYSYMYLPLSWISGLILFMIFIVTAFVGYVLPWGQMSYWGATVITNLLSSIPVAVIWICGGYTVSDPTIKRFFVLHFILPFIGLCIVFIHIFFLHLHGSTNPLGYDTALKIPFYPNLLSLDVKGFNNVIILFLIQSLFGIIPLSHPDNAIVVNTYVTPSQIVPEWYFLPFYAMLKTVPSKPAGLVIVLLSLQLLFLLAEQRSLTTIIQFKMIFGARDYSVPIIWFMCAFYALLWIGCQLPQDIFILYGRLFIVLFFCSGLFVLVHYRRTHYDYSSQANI

Row | IC50 (P. yoelii (17XL); Table 4) [nM] | % Inhibition Cytbc1 biochemical assay, 5 μM (cytbc1) [%] | Structure (SMILES) | IC50 (HEK 293 cells) [nM] | other results
1 | 292 ± 249 | 100.30 ± 2.14 | c1ccc(CCNc2ncnc3c2[nH]c2ccccc23)cc1 [TCMDC-124578] | 7520 ± 500 | –
2 | 760 ± 109 | 59.97 ± 8.70 | COc1ccc(NS(=O)(=O)c2cc(NC(=O)Cn3ccccc3=O)ccc2N2CCCCC2)cc1 [TCMDC-124874] | > 10000 | –
3 | 1100 ± 131 | 77.11 ± 12.20 | Cc1cccc(-c2nn(-c3ccccc3)cc2C(=O)Nc2nnc(C)o2)c1 [TCMDC-125039] | > 10000 | –
4 | 2200 ± 1950 | 89.93 ± 9.67 | Cc1cccc2nc(-c3ccc(-c4ccc(CN5CC(C)OC(C)C5)cc4)cc3)[nH]c12.O=C(O)C(F)(F)F (stereo not shown) [TCMDC-133823] | > 10000 | –
5 | 514 ± 225 | 91.48 ± 7.57 | COCCN(C)c1ccc(C(=O)Nc2ccccc2)cc1NS(=O)(=O)Cc1ccccc1.O=C(O)C(F)(F)F [TCMDC-134575] | > 10000 | –
6 | 1320 ± 860 | 50.34 ± 6.78 | Clc1cccc(Nc2ccc3c(N4CCCCC4)ncnc3n2)c1 [TCMDC-134937] | > 10000 | –

The remaining lines, values behind:

Row | Structure (SMILES) | IC50 (P. yoelii (17XL); Table 4) [nM] | % Inhibition Cytbc1 biochemical assay, 5 μM (cytbc1) [%] | IC50 (HEK 293 cells) [nM] | other results
7 | O=C1C(O)=C([C@H]2CC[C@H](c3ccc(Cl)cc3)CC2)C(=O)c2ccccc21 [Atovaquone, reference compound] | – | – | – | inhibition of oxygen consumption signal in Plasmodium cells (P. yoelii (17XL); 1.25 μM atovaquone, 2·10^7 P. yoelii cells (Fig. 2B)): completely inhibited; IC50 (P. yoelii (17XL); Plasmodium yoelii): 5 ± 1 nM; inhibition at 0.5 µM (cytbc1; read-out: % Inhibition Cytbc1 biochemical assay, 0.5 μM): 105 ± 8.26%; inhibition at 5 µM (cytbc1; read-out: % Inhibition Cytbc1 biochemical assay, 5 μM): 101 ± 9.82%
8 | N#CC(C#N)=NNc1ccc(OC(F)(F)F)cc1 [FCCP, carbonyl cyanide 4-(trifluoromethoxy)phenylhydrazone] | – | – | – | Selectivity (P. falciparum vs H. sapiens) (P. falciparum (K1)): 1.93
9 | C=C(C)[C@H]1Cc2c(ccc3c2O[C@@H]2COc4cc(OC)c(OC)cc4[C@@H]2C3=O)O1 [Rotenone, reference compound] | – | – | – | inhibition of oxygen consumption signal in HEK 293 cells (HEK 293 cells; rotenone at 2.5 μM, 6.5·10^5 HEK 293 cells (Fig. 2A)): completely inhibited
10 | C/C=C(C)/C=C/C=C/[C@H](OC)[C@@H](C)[C@@H](OC)[C@@H](C)CCc1oc2c(O)c(OC)cc(OC)c2c(=O)c1C [Stigmatellin] | – | – | – | Selectivity (P. falciparum vs H. sapiens) (P. falciparum (K1); ratio of OCA IC50 HEK 293 / P. falciparum K1): 0.015
11 | O=C(Nc1ccccc1O)c1ccc(S(=O)(=O)c2ccc(Cl)cc2)cc1 [TCMDC-123689] | 8190 ± 1260 | 99.84 ± 2.22 | > 10000 | –
